According to patent US20230243002A1, “ASSAY OT DETECT VIRUS” (priority 2020, published 2023):

How the values were obtained:
[1] = tested on: luminescence output of luciferase; test: Compounds and reagents that inhibit or interfere with the ID-Oligo luminescence methods; format: biochemical
Excerpt: Various compounds and components may interfere with the methods described herein. […] Thus, in some embodiments, the sample is free of compounds and components that inhibit the luminescence output of luciferase. Accordingly, the sample may be free of sodium-azide, sodium-citrate, heparin, EDTA, EGTA, proteases, phosphates, 2,2′-azino-di-(3-ethylbenzothiazoline)-6-sulfonic acid (ABTS), and/or butylated hydroxytoluene (BHT). In various related aspects, the present application also relates to devices and kits for performing the methods described herein. Such kits contain monitors, reagents and procedures that can be utilized in a clinical or research setting or adapted for either the field laboratory or on-site use. In particular, kits comprising the disclosed reagents used in practicing the methods described herein include any of a number of means for detecting the captured target nucleic acid molecule and measuring the bioluminescent signal produced subsequent to target capture, along with appropriate instructions, are contemplated. Suitable kits comprise reagents sufficient for performing an assay, or one or more independent steps of an assay, to detect a target nucleic acid molecule, as described herein above.

[2] = tested on: coupled ATPS-luciferase reaction; conditions: 0.04% Na-Azide, LU measured for 200 seconds
[3] = tested on: SARS-CoV-2, USA-WA1/2020 RNA; test: ID-Oligos assay signal output with dC/T/G only or supplemented with dATPαS; format: biochemical; conditions: supplemented with 0.1 mM dATPαS versus only dT/G/C
luciferase = luciferase (Photinus pyralis, UniProt P08659); test: Background LU of reaction with only luciferase and no viral RNA, dATP versus dATPαS; format: biochemical
Sequence of luciferase (P08659 whole entry): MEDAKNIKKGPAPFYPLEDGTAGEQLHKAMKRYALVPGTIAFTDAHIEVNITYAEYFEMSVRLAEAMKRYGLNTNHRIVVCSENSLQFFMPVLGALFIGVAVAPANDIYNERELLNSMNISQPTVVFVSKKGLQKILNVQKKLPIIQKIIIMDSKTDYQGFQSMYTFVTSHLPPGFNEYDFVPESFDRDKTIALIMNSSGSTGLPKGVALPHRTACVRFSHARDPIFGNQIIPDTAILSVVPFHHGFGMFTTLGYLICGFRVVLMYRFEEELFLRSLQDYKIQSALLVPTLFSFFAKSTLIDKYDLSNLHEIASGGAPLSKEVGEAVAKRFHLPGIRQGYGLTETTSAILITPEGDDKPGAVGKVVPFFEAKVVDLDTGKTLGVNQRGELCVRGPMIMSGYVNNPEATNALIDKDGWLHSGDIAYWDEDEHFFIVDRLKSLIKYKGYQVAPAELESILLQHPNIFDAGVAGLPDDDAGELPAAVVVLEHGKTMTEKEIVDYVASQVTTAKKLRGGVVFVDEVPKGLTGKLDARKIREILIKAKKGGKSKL

Compound	inhibit or interfere with the methods described herein [1]	also measured
CCn1c(=NN=c2sc3cc(S(=O)(=O)O)ccc3n2CC)sc2cc(S(=O)(=O)O)ccc21 [ABTS, 2,2′-azino-di-(3-ethylbenzothiazoline)-6-sulfonic acid]	inhibit or interfere	
[N-]=[N+]=[N-].[Na+] [Na-azide]	inhibit or interfere	effect on the luminescence output of the coupled ATPS-luciferase reaction [2]: inhibitory effect
Nc1ncnc2c1ncn2[C@H]1C[C@H](O)[C@@H](COP(O)(=S)OP(=O)(O)OP(=O)(O)O)O1 (some centres unmarked) [dATPαS]		reaction slope [3]: Higher slope values; improved signal-to-noise ratio (luciferase): ~2 orders of magnitude; LU background (luciferase; 0.1 mM/1 mM, luciferase only, no viral RNA): reduction
heparin	inhibit or interfere	
Cc1cc(C(C)(C)C)c(O)c(C(C)(C)C)c1 [BHT, butylated hydroxytoluene]	inhibit or interfere	
O=C(O)CN(CCN(CC(=O)O)CC(=O)O)CC(=O)O [EDTA]	inhibit or interfere	
O=C([O-])CC(O)(CC(=O)[O-])C(=O)[O-].[Na+].[Na+].[Na+] [Na-citrate]	inhibit or interfere	
O=C(O)CN(CCOCCOCCN(CC(=O)O)CC(=O)O)CC(=O)O [EGTA]	inhibit or interfere	
